ChEMBL document CHEMBL4265944, “Novel amide derivatives of 1,3-dimethyl-2,6-dioxopurin-7-yl-alkylcarboxylic acids as multifunctional TRPA1 antagonists and PDE4/7 inhibitors: A new approach for the treatment of pain” (Eur J Med Chem, 2018)
The source made the active and inactive calls. The rule behind the calls is not given here.

What was measured:
Rattus norvegicus [1] = assay: Anti-inflammatory activity in Wistar rat assessed as inhibition of carrageenan-induced paw edema at 20 mg/kg, ip measured at 3 hrs post dose relative to control; format: functional
[2] = biological target: 3',5'-cyclic-AMP phosphodiesterase 4B (Homo sapiens, UniProt Q07343); assay: Inhibition of recombinant human PDE4B using cAMP as substrate after 10 mins by PDE-Glo Phosphodiesterase Assay
Sequence of 3',5'-cyclic-AMP phosphodiesterase 4B (Q07343 whole entry): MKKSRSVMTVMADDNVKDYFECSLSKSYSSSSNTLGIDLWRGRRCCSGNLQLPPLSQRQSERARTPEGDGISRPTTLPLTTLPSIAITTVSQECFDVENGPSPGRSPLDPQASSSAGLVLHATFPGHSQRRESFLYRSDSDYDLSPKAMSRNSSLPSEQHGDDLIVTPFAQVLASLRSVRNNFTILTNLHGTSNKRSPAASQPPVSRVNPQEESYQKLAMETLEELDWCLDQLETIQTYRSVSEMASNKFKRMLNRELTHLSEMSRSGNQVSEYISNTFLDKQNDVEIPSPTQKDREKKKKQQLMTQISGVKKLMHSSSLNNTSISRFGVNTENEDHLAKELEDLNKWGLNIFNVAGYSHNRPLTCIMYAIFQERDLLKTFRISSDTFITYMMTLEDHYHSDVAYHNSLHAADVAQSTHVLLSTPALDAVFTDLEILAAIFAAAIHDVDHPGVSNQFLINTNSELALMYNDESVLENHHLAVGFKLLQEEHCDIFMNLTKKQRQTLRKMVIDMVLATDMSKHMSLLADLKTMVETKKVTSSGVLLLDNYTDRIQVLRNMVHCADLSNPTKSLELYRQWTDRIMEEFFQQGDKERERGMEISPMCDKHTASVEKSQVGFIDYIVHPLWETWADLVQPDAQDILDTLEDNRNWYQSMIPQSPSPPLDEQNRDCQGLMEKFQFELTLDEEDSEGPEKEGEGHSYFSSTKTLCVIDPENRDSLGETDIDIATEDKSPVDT

Mus musculus [3] = assay: Antiinflammatory activity in formalin-induced nociception ip dosed Swiss CD-1 mouse model assessed as time spent on licking or biting formalin injected right hind paw […] measured during phase 2; format: functional; conditions: Swiss CD-1, ip
[4] = Plasma concentration in Wistar rat model of LPS-induced inflammation at 50 mg/kg, ip measured at 1.5 hrs post dose by HPLC method; format: ADME, organism-based
Rattus norvegicus [5] = assay: Antiinflammatory activity in Wistar rat assessed as inhibition of LPS-induced TNF-alpha level at 50 mg/kg, ip measured at 1 hr post dose by ELISA relative to control; format: functional
[6] = biological target: Transient receptor potential cation channel subfamily A member 1 (Homo sapiens) (UniProt O75762); assay: Antagonist activity at human TRPA1 expressed in HEK293 cells assessed as decrease in flufenamic acid-evoked increase in intracellular calcium level at 1 uM measured for 180 secs with 1 sec interval by Fluo4-AM dye-based fluorescence assay relative to control; format: cell-based
Sequence of Transient receptor potential cation channel subfamily A member 1 (Homo sapiens) (O75762 whole entry): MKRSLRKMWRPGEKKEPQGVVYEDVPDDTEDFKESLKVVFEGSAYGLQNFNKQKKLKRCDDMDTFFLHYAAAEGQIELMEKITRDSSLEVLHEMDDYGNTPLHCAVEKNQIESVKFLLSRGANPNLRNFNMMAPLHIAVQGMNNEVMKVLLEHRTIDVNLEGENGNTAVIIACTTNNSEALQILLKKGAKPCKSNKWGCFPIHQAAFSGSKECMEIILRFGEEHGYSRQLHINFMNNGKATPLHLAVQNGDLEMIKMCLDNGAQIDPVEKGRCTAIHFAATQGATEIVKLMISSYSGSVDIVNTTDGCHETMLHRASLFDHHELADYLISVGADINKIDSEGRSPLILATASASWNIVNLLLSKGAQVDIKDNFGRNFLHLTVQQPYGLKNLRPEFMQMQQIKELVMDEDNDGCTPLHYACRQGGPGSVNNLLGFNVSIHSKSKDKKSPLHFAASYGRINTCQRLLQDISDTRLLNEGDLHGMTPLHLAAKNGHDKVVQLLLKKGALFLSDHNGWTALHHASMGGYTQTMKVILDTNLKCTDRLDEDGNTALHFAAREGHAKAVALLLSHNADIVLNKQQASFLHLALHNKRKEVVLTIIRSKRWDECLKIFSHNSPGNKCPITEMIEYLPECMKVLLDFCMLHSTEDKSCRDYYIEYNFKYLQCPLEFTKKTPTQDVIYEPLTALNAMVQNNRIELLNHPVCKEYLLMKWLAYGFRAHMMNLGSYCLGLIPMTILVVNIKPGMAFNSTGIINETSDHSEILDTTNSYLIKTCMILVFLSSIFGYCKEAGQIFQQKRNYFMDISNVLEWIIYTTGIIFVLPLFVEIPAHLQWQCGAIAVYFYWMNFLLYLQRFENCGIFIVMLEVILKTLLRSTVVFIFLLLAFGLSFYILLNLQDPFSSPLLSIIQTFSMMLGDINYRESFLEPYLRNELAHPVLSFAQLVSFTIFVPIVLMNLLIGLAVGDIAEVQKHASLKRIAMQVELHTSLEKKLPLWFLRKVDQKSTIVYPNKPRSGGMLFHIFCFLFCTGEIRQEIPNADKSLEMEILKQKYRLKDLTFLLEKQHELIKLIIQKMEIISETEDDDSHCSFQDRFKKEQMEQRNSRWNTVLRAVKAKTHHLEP

Mus musculus [7] = assay: Antiinflammatory activity in formalin-induced nociception Swiss CD-1 mouse model assessed as time spent on licking or biting formalin injected right hind paw during neurogenic phase at 2.5 mg/kg, ip measured during phase 1 (reference value: 33 +/- 1.45 sec); format: functional
Mus musculus [8] = assay: Antiinflammatory activity in formalin-induced nociception Swiss CD-1 mouse model assessed as time spent on licking or biting formalin injected right hind paw during neurogenic phase at 10 mg/kg, ip measured during phase 1 (reference value: 33 +/- 1.45 sec); format: functional
Rattus norvegicus [9] = assay: Antiinflammatory activity in Wistar rat assessed as inhibition of LPS-induced TNF-alpha level at 50 mg/kg, ip measured at 2 hrs post dose by ELISA relative to control; format: functional
Rattus norvegicus [10] = assay: Anti-inflammatory activity in Wistar rat assessed as inhibition of carrageenan-induced paw edema at 20 mg/kg, ip measured at 2 hrs post dose relative to control; format: functional
Mus musculus [11] = assay: Potency index, ratio of ED50 for HC-030031 to test compound ED50 for formalin-induced nociception ip dosed Swiss CD-1 mouse model assessed as time spent on licking or biting formalin injected right hind paw […] measured during phase 2; format: functional
[12] = biological target: High affinity 3',5'-cyclic-AMP phosphodiesterase 7A (Homo sapiens, UniProt Q13946); assay: Inhibition of recombinant human PDE7A using cAMP as substrate after 10 mins by PDE-Glo Phosphodiesterase Assay
Sequence of High affinity 3',5'-cyclic-AMP phosphodiesterase 7A (Q13946 whole entry): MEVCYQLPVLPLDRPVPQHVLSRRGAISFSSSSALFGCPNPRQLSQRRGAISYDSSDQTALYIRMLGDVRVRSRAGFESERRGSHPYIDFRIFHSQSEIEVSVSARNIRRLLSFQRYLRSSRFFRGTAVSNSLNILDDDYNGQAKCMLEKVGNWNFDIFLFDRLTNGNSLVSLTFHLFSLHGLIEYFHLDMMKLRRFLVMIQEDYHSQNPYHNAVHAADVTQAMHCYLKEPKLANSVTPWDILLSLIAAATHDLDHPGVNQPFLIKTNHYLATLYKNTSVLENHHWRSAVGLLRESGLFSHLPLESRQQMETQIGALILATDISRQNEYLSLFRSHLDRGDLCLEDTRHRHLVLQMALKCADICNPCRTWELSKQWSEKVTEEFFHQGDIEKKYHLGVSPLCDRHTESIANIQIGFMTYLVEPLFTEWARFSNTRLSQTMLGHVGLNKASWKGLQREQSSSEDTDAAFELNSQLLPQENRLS

Rattus norvegicus [13] = assay: Antiinflammatory activity in Wistar rat assessed as inhibition of LPS-induced TNF-alpha level at 50 mg/kg, ip measured at 1.5 hrs post dose by ELISA relative to control; format: functional
[14] = biological target: Transient receptor potential cation channel subfamily A member 1 (Homo sapiens) (UniProt O75762); assay: Antagonist activity at human TRPA1 expressed in HEK293 cells assessed as decrease in flufenamic acid-evoked increase in intracellular calcium level at 10 uM measured for 180 secs with 1 sec interval by Fluo4-AM dye-based fluorescence assay relative to control; format: cell-based
Mus musculus [15] = assay: Antiinflammatory activity in formalin-induced nociception Swiss CD-1 mouse model assessed as time spent on licking or biting formalin injected right hind paw […] at 5 mg/kg, ip measured during phase 2 (reference value: 83.63 +/- 12.98 sec); format: functional
Rattus norvegicus [16] = assay: Anti-inflammatory activity in Wistar rat assessed as inhibition of carrageenan-induced paw edema at 20 mg/kg, ip measured at 1 hr post dose relative to control; format: functional
Mus musculus [17] = assay: Antiinflammatory activity in formalin-induced nociception Swiss CD-1 mouse model assessed as time spent on licking or biting formalin injected right hind paw during neurogenic phase at 5 mg/kg, ip measured during phase 1 (reference value: 33 +/- 1.45 sec); format: functional
[18] = Plasma concentration in Wistar rat model of LPS-induced inflammation at 50 mg/kg, ip measured at 2 hrs post dose by HPLC method; format: ADME, organism-based
Rattus norvegicus [19] = assay: Antiallodynic activity in Wistar rat assessed as reduction in oxaliplatin-induced neuropathic pain in late phase by measuring paw withdrawal latency time at 1 to 10 mg/kg, ip measured after 60 secs by cold plate test; format: functional, organism-based
[20] = Plasma concentration in Wistar rat model of LPS-induced inflammation at 50 mg/kg, ip measured at 1 hr post dose by HPLC method; format: ADME, organism-based
Rattus norvegicus [21] = assay: Antiallodynic activity in Wistar rat assessed as reduction in oxaliplatin-induced neuropathic pain in early phase by measuring paw withdrawal force at 10 mg/kg, ip measured after 60 mins by Von Frey test; format: functional, organism-based
[22] = biological target: Transient receptor potential cation channel subfamily A member 1 (Homo sapiens) (UniProt O75762); assay: Antagonist activity at human TRPA1 expressed in HEK293 cells assessed as decrease in flufenamic acid-evoked increase in intracellular calcium level at 100 uM measured for 180 secs with 1 sec interval by Fluo4-AM dye-based fluorescence assay relative to control; format: cell-based
Mus musculus [23] = assay: Antiinflammatory activity in formalin-induced nociception Swiss CD-1 mouse model assessed as time spent on licking or biting formalin injected right hind paw during […] phase at 2.5 mg/kg, ip measured during phase 2 (reference value: 83.63 +/- 12.98 sec); format: functional
Rattus norvegicus [24] = assay: Antiallodynic activity in Wistar rat assessed as reduction in oxaliplatin-induced neuropathic pain in early phase by measuring paw withdrawal latency time at 1 to 10 mg/kg, ip measured after 60 secs by cold plate test; format: functional, organism-based
Rattus norvegicus [25] = assay: Antiinflammatory activity in Wistar rat assessed as inhibition of LPS-induced TNF-alpha level at 50 mg/kg, ip measured at 1 to 2 hrs post dose by ELISA relative to control; format: functional
Mus musculus [26] = assay: Antiinflammatory activity in formalin-induced nociception Swiss CD-1 mouse model assessed as time spent on licking or biting formalin injected right hind paw during […] phase at 2.5 mg/kg, ip measured during phase 2 (reference value: 143.60 sec); format: functional
Rattus norvegicus [27] = assay: Antiallodynic activity in Wistar rat assessed as reduction in oxaliplatin-induced neuropathic pain in late phase by measuring paw withdrawal latency time at 1 mg/kg, ip measured after 60 secs by cold plate test; format: functional, organism-based
Rattus norvegicus [28] = assay: Antiallodynic activity in Wistar rat assessed as reduction in oxaliplatin-induced neuropathic pain in late phase by measuring paw withdrawal force at 10 mg/kg, ip measured after 60 mins by Von Frey test; format: functional, organism-based
Mus musculus [29] = assay: Antiinflammatory activity in formalin-induced nociception Swiss CD-1 mouse model assessed as time spent on licking or biting formalin injected right hind paw during neurogenic phase at 2.5 mg/kg, ip measured during phase 1 (reference value: 75.50 +/- 6.86 sec); format: functional
Rattus norvegicus [30] = assay: Antiallodynic activity in Wistar rat assessed as reduction in oxaliplatin-induced neuropathic pain in early phase by measuring paw withdrawal force at 1 mg/kg, ip measured after 60 mins by Von Frey test; format: functional, organism-based
Mus musculus [31] = assay: Antiinflammatory activity in formalin-induced nociception Swiss CD-1 mouse model assessed as time spent on licking or biting formalin injected right hind paw during neurogenic phase at 10 mg/kg, ip measured during phase 1 (reference value: 75.50 +/- 6.86 sec); format: functional
Rattus norvegicus [32] = assay: Antiallodynic activity in Wistar rat assessed as reduction in oxaliplatin-induced neuropathic pain in early phase by measuring paw withdrawal force at 5 to 10 mg/kg, ip measured after 60 mins by Von Frey test; format: functional, organism-based
Rattus norvegicus [33] = assay: Antiallodynic activity in Wistar rat assessed as reduction in oxaliplatin-induced neuropathic pain in late phase by measuring paw withdrawal latency time at 5 mg/kg, ip measured after 60 secs by cold plate test; format: functional, organism-based
Mus musculus [34] = assay: Antiinflammatory activity in formalin-induced nociception Swiss CD-1 mouse model assessed as time spent on licking or biting formalin injected right hind paw […] at 5 mg/kg, ip measured during phase 2 (reference value: 143.60 sec); format: functional
Mus musculus [35] = assay: Antiinflammatory activity in formalin-induced nociception Swiss CD-1 mouse model assessed as time spent on licking or biting formalin injected right hind paw during […] phase at 10 mg/kg, ip measured during phase 2 (reference value: 143.60 sec); format: functional
Mus musculus [36] = assay: Antiinflammatory activity in formalin-induced nociception Swiss CD-1 mouse model assessed as time spent on licking or biting formalin injected right hind paw during neurogenic phase at 5 mg/kg, ip measured during phase 1 (reference value: 75.50 +/- 6.86 sec); format: functional
Mus musculus [37] = assay: Antiinflammatory activity in formalin-induced nociception Swiss CD-1 mouse model assessed as time spent on licking or biting formalin injected right hind paw during […] phase at 10 mg/kg, ip measured during phase 2 (reference value: 83.63 +/- 12.98 sec); format: functional

Compound | inhibition in vivo at 20 mg/kg (Rattus norvegicus [1]) [%] | IC50 [2] [µM] | ED50 (Mus musculus [3]) [mg/kg] | concentration at 1.5 h [4] [nM] | inhibition [6] [%] | Time (Mus musculus [7]) [s] | Time (Mus musculus [8]) [s] | inhibition in vivo at 20 mg/kg (Rattus norvegicus [10]) [%] | Ratio ED50 (Mus musculus [11]) | IC50 [12] [µM] | inhibition [14] [%] | Time (Mus musculus [15]) [s] | inhibition in vivo at 20 mg/kg (Rattus norvegicus [16]) [%] | Time (Mus musculus [17]) [s] | concentration at 2 h [18] [nM] | concentration at 1 h [20] [nM] | Activity (Rattus norvegicus [21]) | inhibition [22] [%] | Time (Mus musculus [23]) [s] | Activity (Rattus norvegicus [27]) | other results
CCCCOc1nc2c(c(=O)n(C)c(=O)n2C)n1CCCC(=O)Nc1cc(C(C)(C)C)ccc1O | 33.5 | 5.43 | 3.44 | 740 | 6 | 32 | 21.33 | 79.7 | 10 - 13 | 5.07 | 7 | 49.17 | 48 | 25.17 | 290 | 1980 | Active | 39 | 47.67 | – | inhibition in vivo at 50 mg/kg (Rattus norvegicus [5]): 85.4%; inhibition in vivo at 50 mg/kg (Rattus norvegicus [9]): 92%; inhibition in vivo at 50 mg/kg (Rattus norvegicus [13]): 90.2%; Activity (Rattus norvegicus [19]): Active; Activity (Rattus norvegicus [24]): Active
COc1nc2c(c(=O)n(C)c(=O)n2C)n1CC(=O)Nc1ccc(C(C)(C)C)cc1 | 30.6 | > 200 | 2.49 | 2330 | 40 | – | – | 18.7 | 10 - 13 | > 200 | 40 | – | 37.1 | – | 1950 | 2680 | – | 53 | – | Active | inhibition in vivo at 50 mg/kg (Rattus norvegicus [25]): 33 to 44%; Time (Mus musculus [26]): 72.6 s; Activity (Rattus norvegicus [28]): Active; Time (Mus musculus [29]): 69 s; Activity (Rattus norvegicus [30]): inactive; Time (Mus musculus [31]): 65.17 s; Activity (Rattus norvegicus [32]): Active; Activity (Rattus norvegicus [33]): Active; Time (Mus musculus [34]): 48 s; Time (Mus musculus [35]): 31.67 s; Time (Mus musculus [36]): 86.33 s
CCOc1nc2c(c(=O)n(C)c(=O)n2C)n1CC(=O)Nc1ccc(C(C)(C)C)cc1 | 50.1 | > 200 | 2.57 | 2590 | 10 | 32 | 32.17 | 54.3 | 10 - 13 | > 200 | 47 | 16.33 | 60.5 | 30.83 | 2250 | 3750 | Active | 59 | 46 | Active | inhibition (Rattus norvegicus [25]): inactive; Activity (Rattus norvegicus [28]): Active; Time (Mus musculus [37]): 9.67 s
